# Read-outs that look alike come from different tables or passages of the source.
# Tests used:
# ΔMTHFD2 cells = conditions: addition of formate to ΔMTHFD2 cells (from HEK293T)
# Description: AICAR in wild type HEK293T cells and cells lacking a key enzyme producing formyl-THF, MTHFD2, was measured by LC-MS. See e.g., Fan et al., Nature 510: 298-302, 2014. […] The ΔMTHFD2 cells lacking MTHFD2 were produced from HEK293T cells by CRISPR (clustered regularly interspaced short palindromic repeat)-mediated knockout.
# HEK293T cells [1] = conditions: 24 h, addition of glycine (5 mM)
# Description: (§2) Metabolites were then harvested by quickly aspirating media, washing with PBS buffer, and immediately adding −80° C. 80:20 methanol: water extraction solution at −80° C. Following quenching, the tissue culture dish was incubated at −80° C. for 15 min, and then the cells were scraped from the plate. After centrifuging the cell suspension at 5300×g for 10 min, the supernatant was kept and the debris was re-extracted with −80° C. 80:20 methanol:water. The resulting suspension was centrifuged again and the supernatant was combined with first supernatant. […] LC separation was by reversed-phase ion-pairing chromatography with tributylamine as the ion-pairing agent. MS analysis was on a stand-alone orbitrap mass analyzer (Thermo Scientific) operated in negative ion mode and scanning from m/z 85-1000 at 1 Hz at 100,000 resolution. Data were analyzed using the MAVEN software suite. All observed LC-MS peaks were in analyzed, including those of roughly 100 known water-soluble metabolites.
# HEK293T cells were cultured in the conditions described in Example 2. In addition to measuring metabolite concentrations, important metabolite ratios, e.g., NADH/NAD+, NADPH/NADP+, ATP/ADP, were calculated.
# HEK293 cell = conditions: 3 days
# Source text: (§1) It is hypothesized that high glycine is driving the backwards SHMT reaction while also impairing the forward reaction by product inhibition.
# HEK293 cells = conditions: DMEM lacking serine, 3 days
# Source text: as §1
# HEK293T cells [2] = test system: HEK293T cells
# Description: To measure cellular folates, media was removed from HEK293T cells, and replaced with 50:50 methanol:water with 25 mM ammonium acetate and 1% sodium ascorbate, at −20° C. […] After 15 min on ice, the cells were scraped from the dish to further enhance extraction, and the cell-liquid mixture was centrifuged to remove particulate matter. The particulate matter was re-extracted with the same solvent for 15 minutes, and the 2 extracts were combined. The resulting combined extract was treated with rat serum to hydrolyze the polyglutamate chains of folate polyglutamates. […] The resulting mixture was passed through a phenyl solid phase extraction column which removes proteins, highly soluble metabolites, salts and further concentrates the folate species, which were then analyzed by in high resolution LC-MS.
# HEK293T cells [3] = assay: U13C tracer labeling of the one-carbon unit pool; format: cell-based; conditions: 48 h, ADP purine ring and dTTP methyl labeling
# Description: In order to determine contribution of the single carbon, cells were cultured with media containing [U ^13C] serine for 48 h, washed three times with cold PBS to remove extracellular serine, extracted, and the intracellular labeling pattern analyzed by LC-MS for ATP (representing purines; there is no labeling of ribose-phosphate based on LC-MS measurements), glycine and serine. See e.g., Fan et al., Nature 510: 298-302, 2014.
# Purine ring labeling is indicative of formyl-THF labeling.
# HCT116 cells = conditions: HCT116 xenograft in CD-1-Foxn1nu female mice; high (2×-5× normal) glycine diets
# Description: Approximately 3×10^6 HCT116 cells (or other tumor-forming transformed cells) are injected on the flank of approximately 8 week CD-1-Foxn1nu female mice (Charles River) or similar rodents. To compare cell lines or gather data more rapidly, different cell lines can be ejected on the 2 flanks (right and left) of each mouse. […] Numbers of mice are selected in order to obtain appropriate statistical power, with 6-20 mice per group typical.
# tumor growth = conditions: patients; current best therapy plus glycine supplementation therapy
# Source text: Individuals providing informed consent to enter the trial are randomized to the current best therapy or current best therapy plus glycine supplementation therapy arms.
# The glycine supplementation therapy arm involves providing increased total intake of glycine and/or decreased total intake of serine so as to achieve an increased ratio of glycine to serine intake. The clinical course of patients enrolled in the trial is monitored with respect to endpoints selected based on the disease state, e.g., for stage IV lung cancer, changes in tumor volume, progression-free survival, and overall survival, as well as side effects of the treatment regimen.
# HEK293T cells [4] = conditions: absence of exogenous serine, 0.4 mM glycine, or addition of 2 mM or 5 mM glycine
# Description: Cell growth was measured in an incubator containing 5% CO2 at 37° C.
# HEK293T cells [5] = conditions: 24 h, +5 mM glycine, DMEM with or without serine
# Description: as §2
# NADPH/NADP+ ratio = assay: Cellular effect of anti-folate therapy on the NADPH/NADP+ ratio; format: cell-based; conditions: methotrexate 500 nM
smiles,measurement,setting,value
O=CO [formate],AICAR accumulation,ΔMTHFD2 cells,eliminates the AICAR accumulation
NCC(=O)O [glycine],ATP/ADP ratio,HEK293T cells [1],significantly decreased
same,decrease in the NADPH/NADP+ ratio,HEK293T cells [1],approximately 2 fold
same,decrease in final cell number relative to growth in complete DMEM,"HEK293 cell; DMEM lacking serine, 1× glycine",approximately 30%
same,decrease in final cell number relative to growth in complete DMEM,HEK293 cell; serine removal and addition of 12× glycine,approximately 70%
same,Relative NADPH/NADP+,"HEK293 cells; 1× glycine, complete DMEM approximately 1",approximately 0.7
same,Relative NADPH/NADP+,HEK293 cells; addition of 12× glycine,approximately 0.45
same,AICAR,HEK293T cells [2]; glycine addition,rise
same,Formyl-THF and methyl-THF levels,"HEK293T cells [2]; presence of glycine when serine is absent, 1× and 10× relative to standard DMEM",decrease
same,contribution to the cellular one-carbon unit pool,HEK293T cells [3],does not contribute one carbon units
same,tumor growth and tumor progression,HCT116 cells,will reduce tumor growth and slow tumor progression
same,tumor growth and tumor progression,tumor growth,will reduce tumor growth and slow tumor progression
same,transformed cell growth,HEK293T cells [4],inhibits transformed cell growth
same,intracellular serine levels,HEK293T cells [5],enhanced
CN(Cc1cnc2nc(N)nc(N)c2n1)c1ccc(C(=O)N[C@@H](CCC(=O)O)C(=O)O)cc1 [methotrexate],NADPH/NADP+ ratio,NADPH/NADP+ ratio,decrease
"N[C@@H](CO)C(=O)O [serine, reference compound]",contribution to the cellular one-carbon unit pool,HEK293T cells [3],contributes to the cellular one-carbon unit pool
